Measured values: PMC5218480 (PLoS ONE, 2017)

Test system: MV-4-11 cells
Experiment: Gene expression microarray analysis (Affymetrix PrimeView) and GSEA
Format: cell-based, human
Design: RFU PODN (11730768_x_at) / Fold change /veh PODN (11730768_x_at) / RFU LINC00158 (11744669_a_at) / Fold change /veh LINC00158 (11744669_a_at) / RFU DUSP10 (11751237_a_at) / Fold change /veh DUSP10 (11751237_a_at) / RFU ID3 (11757404_x_at) / Fold change /veh ID3 (11757404_x_at) / RFU PLEKHG5 (11737974_s_at) / Fold change /veh PLEKHG5 (11737974_s_at) / RFU LRRC4B (11730491_at) / Fold change /veh LRRC4B (11730491_at) / RFU GIMAP4 (11747438_a_at) / Fold change /veh GIMAP4 (11747438_a_at) / RFU KRT8 (11758183_x_at) / Fold change /veh KRT8 (11758183_x_at) / RFU CNN1 (11734310_a_at) / Fold change /veh CNN1 (11734310_a_at) / RFU VPS37D (11726825_at) / Fold change /veh VPS37D (11726825_at) / RFU C10orf10 (11716522_x_at) / Fold change /veh C10orf10 (11716522_x_at) / RFU KIR2DL2 /// KIR2DL4 /// KIR2DL5A /// KIR2DL5B /// KIR2DS1 /// KIR2DS2 /// KIR2DS3 /// KIR2DS4 /// KIR3DL3 /// KIR3DL3 /// KIR3DS1 (11738374_at) / Fold change /veh KIR2DL2 /// KIR2DL4 /// KIR2DL5A /// KIR2DL5B /// KIR2DS1 /// KIR2DS2 /// KIR2DS3 /// KIR2DS4 /// KIR3DL3 /// KIR3DL3 /// KIR3DS1 (11738374_at) / RFU C1QL1 (11718748_at) / Fold change /veh C1QL1 (11718748_at) / RFU TMPRSS4 (11747572_a_at) / Fold change /veh TMPRSS4 (11747572_a_at) / RFU HAMP (11756126_x_at) / Fold change /veh HAMP (11756126_x_at) / RFU RNFT2 (11725882_a_at) / Fold change /veh RNFT2 (11725882_a_at) / RFU NR4A2 (11747474_a_at) / Fold change /veh NR4A2 (11747474_a_at) / RFU ABCC12 (11746883_a_at) / Fold change /veh ABCC12 (11746883_a_at) / RFU TMEM136 (11760407_x_at) / Fold change /veh TMEM136 (11760407_x_at) / RFU CLDN22 /// WWC2 (11732394_at) / Fold change /veh CLDN22 /// WWC2 (11732394_at) / RFU HLA-DPB1 (11760878_x_at) / Fold change /veh HLA-DPB1 (11760878_x_at) / RFU SPINT1 (11716480_a_at) / Fold change /veh SPINT1 (11716480_a_at) / RFU GAP43 (11754022_s_at) / Fold change /veh GAP43 (11754022_s_at) / RFU A4GNT (11735810_at) / Fold change /veh A4GNT (11735810_at) / RFU PRB3 (11715151_x_at) / Fold change /veh PRB3 (11715151_x_at) / RFU TUBB4B (11761932_at) / Fold change /veh TUBB4B (11761932_at) / RFU CAPN14 (11732068_a_at) / Fold change /veh CAPN14 (11732068_a_at) / RFU TMCC2 (11721928_a_at) / Fold change /veh TMCC2 (11721928_a_at) / RFU IRGQ (11745062_a_at) / Fold change /veh IRGQ (11745062_a_at) / RFU FAM174B (11720279_a_at) / Fold change /veh FAM174B (11720279_a_at) / RFU TMPRSS4 (11748680_a_at) / Fold change /veh TMPRSS4 (11748680_a_at) / RFU FAM212B (11763350_a_at) / Fold change /veh FAM212B (11763350_a_at) / RFU PLEKHG5 (11743358_a_at) / Fold change /veh PLEKHG5 (11743358_a_at) / RFU ZSCAN30 (11745921_a_at) / Fold change /veh ZSCAN30 (11745921_a_at) / RFU CMKLR1 (11741424_a_at) / Fold change /veh CMKLR1 (11741424_a_at) / RFU LOC101060620 /// MAPK8IP1 (11723275_at) / Fold change /veh LOC101060620 /// MAPK8IP1 (11723275_at) / RFU SPTSSB (11747773_x_at) / Fold change /veh SPTSSB (11747773_x_at) / RFU PRSS12 (11739890_at) / Fold change /veh PRSS12 (11739890_at) / RFU BIN1 (11741810_x_at) / Fold change /veh BIN1 (11741810_x_at) / RFU WNT11 (11732464_a_at) / Fold change /veh WNT11 (11732464_a_at) / RFU C10orf10 (11716521_a_at) / Fold change /veh C10orf10 (11716521_a_at) / RFU C5orf56 (11738089_at) / Fold change /veh C5orf56 (11738089_at) / RFU CYB561 (11721691_x_at) / Fold change /veh CYB561 (11721691_x_at) / RFU ANKRD19P (11752326_a_at) / Fold change /veh ANKRD19P (11752326_a_at) / RFU OR2T12 /// OR2T33 /// OR2T8 (11738714_s_at) / Fold change /veh OR2T12 /// OR2T33 /// OR2T8 (11738714_s_at) / RFU VCAN (11748164_a_at) / Fold change /veh VCAN (11748164_a_at) / RFU JSRP1 (11732532_at) / Fold change /veh JSRP1 (11732532_at) / RFU KRTAP10-11 (11738290_x_at) / Fold change /veh KRTAP10-11 (11738290_x_at) / RFU MYO3A (11730013_a_at) / Fold change /veh MYO3A (11730013_a_at) / RFU EBF3 (11725865_a_at) / Fold change /veh EBF3 (11725865_a_at) / RFU CAMK2N1 (11719241_x_at) / Fold change /veh CAMK2N1 (11719241_x_at) / RFU C5orf56 (11738088_a_at) / Fold change /veh C5orf56 (11738088_a_at) / RFU OLFML3 (11715873_a_at) / Fold change /veh OLFML3 (11715873_a_at) / RFU LOC100653217 /// NTM (11731650_a_at) / Fold change /veh LOC100653217 /// NTM (11731650_a_at) / RFU MAPK11 (11762145_a_at) / Fold change /veh MAPK11 (11762145_a_at) / RFU FIZ1 (11724087_x_at) / Fold change /veh FIZ1 (11724087_x_at) / RFU OASL (11726364_x_at) / Fold change /veh OASL (11726364_x_at) / RFU SOX15 (11748057_x_at) / Fold change /veh SOX15 (11748057_x_at) / RFU CD79A (11719716_a_at) / Fold change /veh CD79A (11719716_a_at) / RFU HIST1H1D (11736915_at) / Fold change /veh HIST1H1D (11736915_at) / RFU CASKIN2 (11723855_a_at) / Fold change /veh CASKIN2 (11723855_a_at) / RFU LOC730098 (11760151_x_at) / Fold change /veh LOC730098 (11760151_x_at) / RFU OR4N2 (11742367_at) / Fold change /veh OR4N2 (11742367_at) / RFU PRRT2 (11749266_a_at) / Fold change /veh PRRT2 (11749266_a_at) / RFU SNX32 (11753110_a_at) / Fold change /veh SNX32 (11753110_a_at) / RFU CDHR5 (11726645_a_at) / Fold change /veh CDHR5 (11726645_a_at) / RFU RCAN1 (11760418_a_at) / Fold change /veh RCAN1 (11760418_a_at) / RFU FAM167A (11723789_a_at) / Fold change /veh FAM167A (11723789_a_at) / RFU FAM26E (11764081_at) / Fold change /veh FAM26E (11764081_at) / RFU ISYNA1 (11749810_s_at) / Fold change /veh ISYNA1 (11749810_s_at) / RFU ACY1 (11761880_at) / Fold change /veh ACY1 (11761880_at) / RFU 11764098_at / Fold change /veh 11764098_at / RFU SAMD14 (11745864_x_at) / Fold change /veh SAMD14 (11745864_x_at) / RFU NPB (11741838_a_at) / Fold change /veh NPB (11741838_a_at) / RFU TMPRSS6 (11731388_a_at) / Fold change /veh TMPRSS6 (11731388_a_at) / RFU KRTAP10-2 (11738614_at) / Fold change /veh KRTAP10-2 (11738614_at) / RFU ARHGAP8 /// PRR5-ARHGAP8 (11727945_x_at) / Fold change /veh ARHGAP8 /// PRR5-ARHGAP8 (11727945_x_at) / RFU KRTAP5-7 /// NADSYN1 (11734609_at) / Fold change /veh KRTAP5-7 /// NADSYN1 (11734609_at) / RFU RASL12 (11751679_a_at) / Fold change /veh RASL12 (11751679_a_at) / RFU CDKN2B (11736163_a_at) / Fold change /veh CDKN2B (11736163_a_at) / RFU PRF1 (11729649_at) / Fold change /veh PRF1 (11729649_at) / RFU, ZNF638 /// ZNF638-IT1 / Fold change vs veh, ZNF638 /// ZNF638-IT1 / RFU, PANK3 / Fold change vs veh, PANK3 / RFU, SH3YL1 / Fold change vs veh, SH3YL1 / RFU, ZEB2 / Fold change vs veh, ZEB2 / RFU, NRIP1 / Fold change vs veh, NRIP1 / RFU, PTTG1IP / Fold change vs veh, PTTG1IP / RFU, CAPN2 / Fold change vs veh, CAPN2 / RFU, MED14 / Fold change vs veh, MED14 / RFU, SNORA58 / Fold change vs veh, SNORA58 / RFU, C1orf63 / Fold change vs veh, C1orf63 / RFU, LRRFIP1 / Fold change vs veh, LRRFIP1 / RFU, NDUFAF7 / Fold change vs veh, NDUFAF7 / RFU, SLC12A2 / Fold change vs veh, SLC12A2 / RFU, IBTK / Fold change vs veh, IBTK / RFU, ESF1 / Fold change vs veh, ESF1 / Fold change vs veh, TMEM50B / RFU, TAOK1 / Fold change vs veh, TAOK1 / RFU, ACBD3 / Fold change vs veh, ACBD3 / RFU, TMA16 / Fold change vs veh, TMA16 / RFU, RWDD3 / Fold change vs veh, RWDD3 / RFU, BCAT1 / Fold change vs veh, BCAT1 / RFU, EDEM3 / Fold change vs veh, EDEM3 / RFU, TMEM33 / Fold change vs veh, TMEM33 / RFU, WDR75 / Fold change vs veh, WDR75 / RFU, AHCTF1 / Fold change vs veh, AHCTF1 / RFU, TFRC / Fold change vs veh, TFRC / RFU, ZDHHC17 / Fold change vs veh, ZDHHC17 / RFU, NOM1 / Fold change vs veh, NOM1 / RFU, ARL8B / Fold change vs veh, ARL8B / RFU, ZBTB11 / Fold change vs veh, ZBTB11 / RFU, TAMM41 / Fold change vs veh, TAMM41 / RFU, KIAA1704 /// LOC100996395 / Fold change vs veh, KIAA1704 /// LOC100996395 / RFU, ING1 / Fold change vs veh, ING1 / RFU, TRMT61B / Fold change vs veh, TRMT61B / RFU, FUBP3 / Fold change vs veh, FUBP3 / RFU, TP53 / Fold change vs veh, TP53 / RFU, TNKS2 / Fold change vs veh, TNKS2 / RFU, ZFP14 / Fold change vs veh, ZFP14 / RFU, ACTR2 / Fold change vs veh, ACTR2 / RFU, PPP3R1 / Fold change vs veh, PPP3R1 / RFU, PIK3R1 / Fold change vs veh, PIK3R1 / RFU, HNRNPA1 / Fold change vs veh, HNRNPA1 / RFU, RNF170 / Fold change vs veh, RNF170 / RFU, ZNF28 / Fold change vs veh, ZNF28 / RFU, RNGTT / Fold change vs veh, RNGTT / RFU, OGT / Fold change vs veh, OGT / RFU, BRD1 / Fold change vs veh, BRD1 / RFU, MARS / Fold change vs veh, MARS / RFU, ZNF655 / Fold change vs veh, ZNF655 / RFU, FAHD1 / Fold change vs veh, FAHD1 / RFU, BDP1 / Fold change vs veh, BDP1 / RFU, LRRCC1 / Fold change vs veh, LRRCC1 / RFU, ARID1A / Fold change vs veh, ARID1A / RFU, ZNF146 / Fold change vs veh, ZNF146 / RFU, ZNF330 / Fold change vs veh, ZNF330 / RFU, GPN3 / Fold change vs veh, GPN3 / RFU, C9orf123 / Fold change vs veh, C9orf123 / RFU, N4BP2L2 / Fold change vs veh, N4BP2L2 / RFU, ARFIP1 / Fold change vs veh, ARFIP1 / RFU, FAM179B / Fold change vs veh, FAM179B / RFU, BCL10 / Fold change vs veh, BCL10 / RFU, UHRF1BP1L / Fold change vs veh, UHRF1BP1L / RFU, BET1 / Fold change vs veh, BET1 / RFU, CNOT2 / Fold change vs veh, CNOT2 / RFU, ZNF268 / Fold change vs veh, ZNF268 / Fold change vs veh, ZNF507 / RFU, DGCR2 / Fold change vs veh, DGCR2 / RFU, WDSUB1 / Fold change vs veh, WDSUB1 / Fold change vs veh, HSP90B1 /// MIR3652 / RFU, ADSS / Fold change vs veh, ADSS / RFU, GK / Fold change vs veh, GK / RFU, ZNF148 / Fold change vs veh, ZNF148 / RFU, TAF9 / Fold change vs veh, TAF9 / RFU, SLC1A5 / Fold change vs veh, SLC1A5 / RFU, SLMO2 / Fold change vs veh, SLMO2 / RFU, ABCC4 / Fold change vs veh, ABCC4 / RFU, LOC101060439 /// RAP1B / Fold change vs veh, LOC101060439 /// RAP1B / RFU, RFX7 / Fold change vs veh, RFX7 / RFU, GTPBP10 / Fold change vs veh, GTPBP10 / RFU, CNEP1R1 / Fold change vs veh, CNEP1R1 / RFU, BIVM-ERCC5 /// ERCC5 / Fold change vs veh, BIVM-ERCC5 /// ERCC5 / RFU, ILF3 / Fold change vs veh, ILF3 / RFU 11762660_at / Fold change /veh 11762660_at / RFU VCAN (11757783_s_at) / Fold change /veh VCAN (11757783_s_at) / RFU DDX43 (11728927_at) / Fold change /veh DDX43 (11728927_at) / RFU KRT8 (11758188_x_at) / Fold change /veh KRT8 (11758188_x_at) / RFU NKD1 (11759106_at) / Fold change /veh NKD1 (11759106_at) / RFU SRD5A1 (11742802_a_at) / Fold change /veh SRD5A1 (11742802_a_at) / RFU TPSAB1 /// TPSB2 (11721975_s_at) / Fold change /veh TPSAB1 /// TPSB2 (11721975_s_at) / RFU GSTM3 (11746129_a_at) / Fold change /veh GSTM3 (11746129_a_at) / RFU IL23R (11737362_x_at) / Fold change /veh IL23R (11737362_x_at) / RFU TMEM51 (11727254_a_at) / Fold change /veh TMEM51 (11727254_a_at) / RFU PIWIL2 (11732686_x_at) / Fold change /veh PIWIL2 (11732686_x_at) / RFU ORM1 (11744905_x_at) / Fold change /veh ORM1 (11744905_x_at) / RFU CCDC152 (11743942_at) / Fold change /veh CCDC152 (11743942_at) / RFU ECM1 (11717891_a_at) / Fold change /veh ECM1 (11717891_a_at) / RFU IL23R (11748794_a_at) / Fold change /veh IL23R (11748794_a_at) / RFU TNFAIP8L3 (11732012_x_at) / Fold change /veh TNFAIP8L3 (11732012_x_at) / RFU MBOAT4 (11741988_at) / Fold change /veh MBOAT4 (11741988_at) / RFU 11764193_at / Fold change /veh 11764193_at / RFU TMEM53 (11763286_at) / Fold change /veh TMEM53 (11763286_at) / RFU MAGEB2 (11727129_at) / Fold change /veh MAGEB2 (11727129_at) / RFU TMEM200A (11744735_a_at) / Fold change /veh TMEM200A (11744735_a_at) / RFU CCDC152 (11751479_a_at) / Fold change /veh CCDC152 (11751479_a_at) / RFU FAM211A (11726209_a_at) / Fold change /veh FAM211A (11726209_a_at) / RFU RGS16 (11746705_a_at) / Fold change /veh RGS16 (11746705_a_at) / RFU VCAN (11755009_s_at) / Fold change /veh VCAN (11755009_s_at) / RFU RHOB (11743442_s_at) / Fold change /veh RHOB (11743442_s_at) / RFU RGS16 (11720943_a_at) / Fold change /veh RGS16 (11720943_a_at) / RFU RGS16 (11720944_at) / Fold change /veh RGS16 (11720944_at) / RFU, VPS4B / Fold change vs veh, VPS4B / RFU, CREB1 / Fold change vs veh, CREB1 / RFU, DNAJC13 / Fold change vs veh, DNAJC13 / RFU, GNAQ / Fold change vs veh, GNAQ / RFU, CDK5R1 / Fold change vs veh, CDK5R1 / RFU, ZRANB3 / Fold change vs veh, ZRANB3 / RFU, CUL4A / Fold change vs veh, CUL4A / RFU, CCNY / Fold change vs veh, CCNY / RFU, UFL1 / Fold change vs veh, UFL1 / RFU, COG3 / Fold change vs veh, COG3 / RFU, DIAPH2 / Fold change vs veh, DIAPH2 / RFU, SKA2 / Fold change vs veh, SKA2 / RFU, AFF3 / Fold change vs veh, AFF3 / RFU, LMF1 / Fold change vs veh, LMF1 / RFU, IPO11 / Fold change vs veh, IPO11 / RFU, DFFB / Fold change vs veh, DFFB / RFU, FOXP1 / Fold change vs veh, FOXP1 / RFU, CARD8 / Fold change vs veh, CARD8 / RFU, STRN3 / Fold change vs veh, STRN3 / RFU, ADK / Fold change vs veh, ADK / RFU, RASSF2 / Fold change vs veh, RASSF2 / RFU, WIPF1 / Fold change vs veh, WIPF1 / RFU, LARP1B / Fold change vs veh, LARP1B / RFU, RASA1 / Fold change vs veh, RASA1 / RFU, RB1 / Fold change vs veh, RB1 / RFU, PPFIA1 / Fold change vs veh, PPFIA1 / RFU, MAT2A / Fold change vs veh, MAT2A / RFU, CCT5 / Fold change vs veh, CCT5 / RFU, WDR92 / Fold change vs veh, WDR92 / RFU, CUX1 / Fold change vs veh, CUX1 / RFU, TTC7A / Fold change vs veh, TTC7A / RFU, TMEM135 / Fold change vs veh, TMEM135 / RFU, DEPTOR / Fold change vs veh, DEPTOR / RFU, CPM / Fold change vs veh, CPM / RFU, DNAJB6 / Fold change vs veh, DNAJB6 / RFU, CACNA2D3 / Fold change vs veh, CACNA2D3 / RFU, DTX4 / Fold change vs veh, DTX4 / RFU, TFCP2 / Fold change vs veh, TFCP2 / RFU, GMCL1 /// GMCL1P1 / Fold change vs veh, GMCL1 /// GMCL1P1 / RFU, AEBP2 / Fold change vs veh, AEBP2 / RFU, SNHG1 /// SNORD22 /// SNORD25 /// SNORD26 /// SNORD27 /// SNORD28 /// SNORD29 /// SNORD31 / Fold change vs veh, SNHG1 /// SNORD22 /// SNORD25 /// SNORD26 /// SNORD27 /// SNORD28 /// SNORD29 /// SNORD31 / Fold change (Aza/veh), C12orf56 (ProbeSet 11735607_a_at) / Fold change (ACY-1035/veh), C12orf56 (ProbeSet 11735607_a_at) / Fold change (Aza/veh), FGFR1OP (ProbeSet 11751329_s_at) / Fold change (ACY-1035/veh), FGFR1OP (ProbeSet 11751329_s_at) / Fold change (Aza/veh), VPS36 (ProbeSet 11739960_a_at) / Fold change (ACY-1035/veh), VPS36 (ProbeSet 11739960_a_at) / RFU SYPL1 (11715823_x_at) / Fold change /veh SYPL1 (11715823_x_at) / RFU IGFBP7 (11715501_s_at) / Fold change /veh IGFBP7 (11715501_s_at) / RFU REEP3 (11722064_at) / Fold change /veh REEP3 (11722064_at) / RFU IGLL1 (11728026_x_at) / Fold change /veh IGLL1 (11728026_x_at): dose or concentration left out as unconfirmed
Settings: ProbeSet 11744854_x_at; LIST B

In the case of Nc1ccc(-c2cccs2)cc1NC(=O)c1ccc2c(c1)cc(C1CC1)n2CCN1CCOCC1 [ACY-1035], the “RFU, ZNF28” value is reported as 57.08 RFU.
